In EP0405748A1, “Phosphonoderivative of purine with antiviral activity” (Beecham Group p.l.c., priority 1989, dated 1991):
≈ marks a conversion by molar mass, not a printed value. Where two headings read alike, the source gives them in different places.

Experiments:
Type in all cases: cell-based
[1] = test system: herpes simplex virus 1 (HSV-1; HFEM strain); experiment: Plaque Reduction Test for Herpes Simplex Virus 1; settings: Human alphaherpesvirus 1, Vero or MRC-5 cells, read-out: IC₅₀ against HSV-1 virus
Description: (§1) Vero or MRC-5 cells were grown to confluence in 24 well multi-dishes (well diameter = 1.5cm). The drained cell monolayers were each infected with approximately 50 infectious particles of herpes simplex virus 1 (HSV-1; HFEM strain) or herpes simplex virus 2 (HSV-2; strain MS) in 100µl of phosphate-buffered saline. The virus was adsorbed for 1 hour at room temperature. After adsorption, residual inoculum was removed from each well and replaced with 0.5ml of Eagle's MEM containing 5% newborn calf serum and 0.9% agarose (A37). Once the agarose had set, dilutions of the test compound, which had been prepared in Eagle's MEM (containing 5% newborn calf serum), were added, each well receiving 0.5ml of liquid overlay. The test compound was diluted to give the following series of concentrations: 200, 60, 20, 6....0.06µg/ml; final concentrations in the assay ranged, therefore, between 100µg/ml and 0.03µg/ml. The infected cultures were incubated at 37 °C in a humidified atmosphere of 5% CO₂ until plaques were clearly visible (2 or 3 days for Vero cells, usually 1 day for MRC-5 cells).
(§2) Cultures from 1 and 2 were fixed in formal saline, the agarose overlays were carefully washed off, and then the cell monolayers were stained with carbol fuchsin. A stereo microscope was used to count plaques. The IC₅₀ (concentration of drug which inhibits the number of plaques formed by 50% relative to the number of plaques observed in virus control monolayers) of the test compound was calculated. In addition, the monolayers were examined for evidence of drug-induced cytotoxicity; the minimum concentration at which cytotoxicity occurred was recorded.

[2] = test system: herpes simplex virus 2 (HSV-2; strain MS); experiment: Plaque Reduction Test for Herpes Simplex Virus 2; settings: Human alphaherpesvirus 2, Vero or MRC-5 cells, read-out: IC₅₀ against HSV-2
Description: as §1, §2

[3] = test system: varicella zoster virus (VZV; Ellen strain); experiment: Plaque Reduction Test for Varicella Zoster Virus; settings: Human alphaherpesvirus 3, MRC5, MRC-5 cells, read-out: IC₅₀ against VZV
Description: MRC-5 cells were grown to confluence in 24 well multi-dishes (well diameter = 1.5cm). The drained cell monolayers were each infected with approximately 50 infectious particles of varicella zoster virus (VZV; Ellen strain) in 100µl of phosphate-buffered saline. The virus was adsorbed for 1 hour at room temperature. After adsorption, residual inoculum was removed from each well and replaced with 0.5ml of Eagle's MEM containing 5% heat-inactivated foetal calf serum and 0.9% agarose (A37). Once the agarose had set, dilutions of the test compound, which had been prepared in Eagle's MEM (containing 5% heat-inactivated foetal calf serum), were added, each well receiving 0.5ml of liquid overlay. The test compound was diluted to give the following series of concentrations: 200, 60, 20, 6....0.06µg/ml; final concentrations in the assay ranged, therefore, between 100µg/ml and 0.03µg/ml. The infected cultures were incubated at 37 °C in a humidified atmosphere of 5% CO₂ until plaques were clearly visible (5 or 6 days).
as §2

[4] = test system: cytomegalovirus (CMV; AD-169 strain); experiment: Plaque Reduction Test for Cytomegalovirus; settings: Human betaherpesvirus 5, AD169, MRC5, MRC-5 cells, read-out: IC₅₀ against CMV
Description: MRC-5 cells were grown to confluence in 24 well multi-dishes (well diameter = 1.5cm). The drained cell monolayers were each infected with approximately 50 infectious particles of cytomegalovirus (CMV; AD-169 strain) in 100µl of phosphate-buffered saline. The virus wasadsorbed for 1 hour at room temperature. After adsorption, residual inoculum was removed from each well and replaced with 1ml of Eagle's MEM containing 10% heatinactivated foetal calf serum and 0.9% agarose (A37). Once the agarose had set, dilutions of the test compound, which had been prepared in Eagle's MEM (containing 10% heat-inactivated calf serum), wereadded, each well receiving 1ml of liquid overlay. The test compound was diluted to give the following series of concentrations: 200, 60, 20, 6....0.06µg/ml; final concentrations in the assay range, therefore, between 100µg/ml and 0.03µg/ml. The infected cultures were incubated at 37 °C in a humidified atmosphere containing 5% CO₂ until plaques were clearly visible (about 12days). The cultures are fixed in formol saline, the agarose overlays were carefully washed off, and then the cell monolayers were stained with carbol fuchsin. A stereo microscope was used to count plaques. The IC₅₀ (concentration of drug which inhibits the number of plaques formed by 50% relative to the number of plaques observed in virus control monolayers) of the test compound was calculated. In addition, the monolayers were examined for evidence of drug-induced cytotoxicity; the minimum concentration at which cytotoxicity occurs was recorded.

HIV-1 strain virus = experiment: HIV Suppression test in peripheral human lymphocytes (p24 ELISA and viral RNA hybridisation); settings: Human immunodeficiency virus 1, Lymphocyte; for inhibition at 10 µM: Concn. 10 µM; for inhibition at 1 µM: Concn. 1 µM
Description: Peripheral human lymphocytes were prepared, cultivated, and harvested as above. Following the determination of the lymphocyte surface markers, unstimulated and mitogen stimulated cells were combined in a ratio of 1:2.
Under safety conditions these cells are infected with a standard preparation of HIV. The cells are sedimented by centrifugation. The supernatant was discarded and cells were resuspended in the HIV inoculum.
This inoculum is a liquid suspension of HIV-1 strain virus, pretested and adjusted to a titer that results in a synthesis of viral core protein p24 of >100 ng/ml at day four following infection of human lymphocytes according to the protocol.
3x10⁸ lymphocytes were resuspended in 1 ml HIV inoculum and incubated at 37 °C for 60 minutes. Subsequently, the cells were washed two times with 50 ml of culture medium and resuspended in culture medium containing 10 units/ml of human recombinant interleukin-2 to yield a cell concentration of 2x10⁶ cells/ml. 100µl of this cell suspension was added to each well of the microtiter plates containing the diluted solutions of the compounds. The microtiter plates were cultivated in an incubator with a humidified atmosphere and 5% CO₂ at 37 °C.
Accordingly, a fraction of lymphocytes was mock-infected with the same virus preparation that was heat inactivated (30 minutes at 56 °C) prior to infection.
On each of the days 2,3 and 4 post infection one of the microtiter plates which had been established in triplicate was prepared for determination of viral replication. Viral RNA is determined within the cells whereas the viral core protein p24 was detected in the supernatant of the lymphocyte culture.
Accordingly, 150 µl of supernatant were removed from each well and transferred to the well of a microtiter plate containing 50 µl/well of SDS (sodium dodecylsulfate, 0.08%). These plates were stored frozen. 50 µl of stop solution (1% SDS, 20mM sodium acetate, pH 5.0, and 200 µg/ml heparin) were added to the cells remaining in each well. The plates were stored frozen.
The concentration of p24 synthesized by the HIV infected cells was determined by means of a sandwich ELISA, while the concentration of viral RNA was quantitated by nucleic acid hybridisation, using a ³²P-labelled DNA probe for the gag/pol region of the viral genome. Absolute levels of viral antigen and RNA in drug treated samples were compared with untreated, virus-infected controls and the percentage inhibition calculated.

[5] = 72 h, viral RNA, Day 3 after infection, read-out: % Inhibition on Days 3 and 4 after infection Viral RNA Day 3
[6] = 72 h, viral core protein p24, Day 3 after infection, read-out: % Inhibition on Days 3 and 4 after infection Viral Anitgen Day 3
[7] = 96 h, viral RNA, Day 4 after infection, read-out: % Inhibition on Days 3 and 4 after infection Viral RNA Day 4
[8] = 96 h, viral core protein p24, Day 4 after infection, read-out: % Inhibition on Days 3 and 4 after infection Viral Anitgen Day 4

| Compound | IC50 [1] [µg/mL] | IC50 [2] [µg/mL] | IC50 [3] [µg/mL] | IC50 [4] [µg/mL] | inhibition at 10 µM (HIV-1 strain virus; [5]) [%] | inhibition at 10 µM (HIV-1 strain virus; [6]) [%] | inhibition at 10 µM (HIV-1 strain virus; [7]) [%] | inhibition at 10 µM (HIV-1 strain virus; [8]) [%] | inhibition at 1 µM (HIV-1 strain virus; [5]) [%] | inhibition at 1 µM (HIV-1 strain virus; [6]) [%] | inhibition at 1 µM (HIV-1 strain virus; [7]) [%] | inhibition at 1 µM (HIV-1 strain virus; [8]) [%] |
| --- | --- | --- | --- | --- | --- | --- | --- | --- | --- | --- | --- | --- |
| Nc1nc2c(ncn2OC[C@H]2COP(=O)(O)CO2)c(=O)[nH]1 [Example 2, (S)-9-[(2-Hydroxy-2-oxo-1,4,2-dioxaphosphorinan-5-yl)methoxy]quanine] | 21 (≈ 66.2 µM) | 15 (≈ 47.3 µM) | 13 (≈ 41 µM) | 3 (≈ 9.46 µM) | 92 | 100 | 32 | 33 |  |  |  |  |
| Nc1nc2c(ncn2OC[C@H](CO)OCP(=O)(O)O)c(=O)[nH]1 [Example 4, (S)-9-[3-Hydroxy-2-(phosphonomethoxy)propoxy]quanine] | 25 (≈ 74.6 µM) | 23 (≈ 68.6 µM) | 52 (≈ 155 µM) | 29 (≈ 86.5 µM) |  |  |  |  | 10 | 54 | 14 | 15 |
| Nc1nc2c(ncn2OC[C@@H](CO)OCP(=O)(O)O)c(=O)[nH]1 [Example 1, (R)-9-[3-Hydroxy-2-(phosphonomethoxy)propoxy]quanine] | 7 (≈ 20.9 µM) | 10 (≈ 29.8 µM) | 17 (≈ 50.7 µM) | 3 (≈ 8.95 µM) |  |  |  |  | 73 | 100 | 54 | 35 |
| Nc1nc2c(ncn2OC[C@@H]2COP(=O)(O)CO2)c(=O)[nH]1 [Example 5, (R)-9-[(2-Hydroxy-2-oxo-1,4,2-dioxaphosphorinan-5-yl)methoxy]quanine] | 73 (≈ 230 µM) | 36 (≈ 113 µM) | 24 (≈ 75.7 µM) | 17 (≈ 53.6 µM) | 64 | 50 | 0 | 7 |  |  |  |  |
| Nc1ncnc2c1ncn2OC[C@@H](CO)OCP(=O)(O)O [Example 3, (R)-9-[3-Hydroxy-2-(phosphonomethoxy)propoxy]adenine] |  |  |  |  | 83 | 80 | 90 | 91 |  |  |  |  |
